Measured values as given in patent publication US12692278B2, “Synthesis methods and compositions of low intermediate and low dichelate intermediate contrast agents” (priority 2021, dated 2026).
“And” between values parts separate entries of the source, which are not always exact repeats. Equal values may be shown once. Blank lines part the entries; values can stand above or below the molecule they belong to.

Experiments:
Format in all cases: physicochemical
[1] = pH controlled synthesis, free Gd versus synthesis time
Protocol: Here, Example 1A is modified by the addition of gadolinim oxide in its entirety at first and immediately after the introduction of the DOTA, and this procedure is used to produce batch A of Gd-DOTA. Batch B is produced using the following modified procedure.
• 1. Heat reactor to 95° C. • 2. Charge water with all of gadolinium oxide • 3. Stir (stir unless otherwise indicated, nominal rate 300 rpm) until the solution is clear • 4. Add sufficient DOTA to obtain a pH of 4 • 5. When pH is >5 charge sufficient DOTA to reach pH of 4 • 6. Stir until uniformly distributed in the water, and clear • 7. If pH<4, then go to step 9 • 8. Go to step 4 • 9. Divide remaining portion of DOTA into 5 parts • 10. Add 1 part of remaining DOTA • 11. Stir until uniformly distributed in the water, and clear • 12. If DOTA remains to be added go to step 10 • 13. Continue to cook for a total of 12 hours Results

[2] = Free gadolinium as a function of synthesis time, spectrometric xylenol orange; conditions: for Free Gd, titrated with meglumine to pH 7.0: after 32 hrs synthesis
Protocol: Once the reference solution is prepared, then product runs can be indexed against this standard. • 23. An improvement over earlier methods involves in-line or batch sample monitoring of metastable intermediate presence. For example, the monitoring can be by Fourier Transform Infrared Spectroscopy, High Performance Liquid Chromatography, Ultra High Performance Liquid Chromatography, or Trans-metalation reaction. The reactant can be titrated with a strong acid (0.1 M HCl) and the free Gd3+ ion quantified by the improved xylenol orange titration according to the present disclosure. The metastable intermediate will release free Gd3+ more quickly than fully complexed Gd-DOTA. The presence of multiple metastable intermediate forms can be detected by dynamic titration over the span of an hour or more, and calculating the Gd3+ ion as a function of time. • 24. In addition, the relative kinetic stability of a Gd-DOTA complex is accessed by exposing the solution to phosphate anions at physiological pH. Even chelates with very high thermodynamic stability constants will equilibrate to form some free chelate and non-chelated gadolinium. Since gadolinium phosphate is insoluble, any non-chelated gadolinium will precipitate as insoluble gadolinium phosphate, and the free Gd3+ ion can be quantified by weighing the precipitate. Verify Complex Formation • 25. Verify absence of free gadolinium using Xylenol orange • 26. If free gadolinium detected, add X DOTA, raise temperature to 95+1-2° C., stir for 1 hr and proceed to step 16 • 27. If not, proceed to step 23 Preparation of Gadoteric Acid Meglumine Solution • 28. Add 90% of the meglumine at 40-45° C. • 29. Sir 10 minutes • 30. Measure pH—in-line probe calibrated to 25° C. (USP) • 31. If pH is >7.5, discard • 32. If pH is between 7.0 and 7.5, then go to step 29 • 33. If pH<than 7.0, add 2% of the Meglumine, go to step 24 • 34. Stir for 1 hr at 40-45° C. • 35. Check solution is clear, if yes proceed to 31, if not repeat 29 Gadoteric Acid Meglumine Solution Filtration • 36. Cool the solution to 20-25° C. • 37. Filter the solution using the carbon filter • 38. Rinse the reactor with 20-25° C. water using ¼ V • 39. Pass rinse through the filter • 40. Repeat rinse steps 33 & 34 for a total of 2 rinses • 41. Place filtrate and rinses back in reactor • 42. Stir at 25-30° C. for 10 min • 43. Measure Free DOTA by HPLC • 44. If Free DOTA is 0.01-0.06% ww proceed to 42 • 45. If Free DOTA<0.01% ww, add 0.03% ww equivalent of DOTA • 46. Stir for ½ hr and go to step 38 • 47. Measure pH—in-line probe calibrated to 25° C. (USP) • 48. If pH is between 7.0 and 7.5, then go to step 45 • 49. If pH<7.0, add meglumine. Stir 10 min. Go to step 42. • 50. Stir ½ hr. • 51. Check solution is clear, if yes proceed to 47, if not repeat 45 Verify Purity • 52. Measure Purity by HPLC • 53. If individual impurity>0.05%, go to step 32 Final API Adjustments • 54. Measure Free DOTA by HPLC • 55. If Free DOTA>0.06% ww, repeat steps 32-42 • 56. If Free DOTA is 0.01-0.06% ww proceed to 55 • 57. If Free DOTA<0.01% ww, add 0.03% ww equivalent of DOTA • 58. Stir ½ hr • 59. Go to Step 49 • 60. Measure pH • 61. If pH is 7.0-7.5, then go to step 53 • 62. If pH<7.0, add Meglumine. Stir 10 min. Go to step 55 Final API Testing • 63. Perform full API testing: Gadolinium content; Meglumine Content; Assay; Water Content; Heavy Metals Free Gadolinium as a Function of Synthesis Time Using the Method of Example 1A.
Free Gadolinium was determined by using the spectrometric xylenol orange technique described in previous studies.
Free Gadolinium as a Function of Synthesis Time Using the Method of Example 1.
Free Gadolinium was determined by using the improved spectrometric xylenol orange technique described in previous studies.

[3] = Effect of solvent (ethanol) on intermediate formation and destabilization of stable complex; conditions: mixed with 10% v-v ethanol, ethanol evaporated 12 hrs
Protocol: At each time step, samples were mixed with 10% v-v ethanol. The ethanol was driven from the sample by evaporation (heating under vacuum) for 12 hrs. Free Gadolinium was determined by using the spectrometric xylenol orange technique described in previous studies.
At each time step, samples were mixed with 10% v-v ethanol. The ethanol was driven from the sample by evaporation (heating under vacuum) for 12 hrs. Free Gadolinium was determined by using the improved spectrometric xylenol orange technique described in previous studies.

[4] = Metastable intermediates as a function of reaction time
Protocol: • 1. Heat reactor to 25-30° C. • 2. Charge water with DOTA • 3. Begin stirring (stir unless otherwise indicated, nominal rate 300 rpm) • 4. Charge 10% of the DOTA • 5. Stir until uniformly distributed in the water • 6. If all the DOTA is charged, then go to step 8 • 7. Go to step 4 • 8. Stir 10 min Preparation of Gadolinium: DOTA Complex • 9. Charge 25% by weight of the Gadolinium oxide • 10. Stir until uniformly distributed • 11. If all the Gadolinium oxide is charged then go to step 13 • 12. Go to step 9 • 13. Stir 10 min • 14. Raise temperature to 95+/−2° C. • 15. Stir 3 hrs. • 16. Check clarity • 17. If not clear continue for 1 hr, go to step 16 (this step took about 12 hours) • 18. If clear, continue 1 hr and then cool to 40-45° C. • 19. If precipitate forms, heat to 95+/−2° C. and stir for 1 hr, go to step 16 Verify Gd-Dota is Free of Metastable Intermediates • 20. A standard metastable-free Gd-DOTA reference solution is obtained by taking 5 ml of reactant obtained from steps 1-19 and diluting to a 0.2 mM Gd-DOTA solution. One measures the metastable intermediate content after synthesis for 5, 10, 15, 20, 25, 30, and 35 hours, or until the concentration of the metastable intermediate asymptotes as close to zero as possible. • 21. […] The output from a copper vapor laser tuned to 578.2 nm (Oxford Lasers, Didcot, United Kingdom) is directed through the reactant and the excitation spectrum obtained at 578.2 nm. Baseline is established by directing the laser through the quartz vessel filled with distilled water.
Stoichiometric ratios of gadolinium oxide were reacted with DOTA according to the procedure outlined in Example 1. Measurements were taken (N=1) to conserve volume. The final measurement was performed 5 times.

[5] = Feasibility of cation exchange (sodium polystyrene sulfonate), free Gd3+ by xylenol orange; conditions: stoichiometric sodium polystyrene sulfonate, room temperature, N = 5
Protocol: Feasibility of cation exchange as a method of making Gd-DOTA with low metastable intermediates
Using sodium polystyrene sulfonate, rather than the polymer described above.
Ten samples were stored at room temperature with a stoichiometric amount of sodium polystyrene sulfonate.
Samples were tested using the improved spectrometric xylenol orange method.

[6] = Feasibility of excess DTPA, free Gd3+ by xylenol orange; conditions: stoichiometric DTPA, room temperature, 24 hours
Protocol: The metastable intermediate concentration is determined by Example 3, and associated methods described in the present application. A Gd-DOTA synthesis containing metastable intermediates is heated to 95° C. in the presence of a stoichiometric amount of DTPA sufficient to consume all the metastable intermediates. The presence of metastable intermediates can be measured as a function of time. The reaction is continued until a desired metastable intermediate content is obtained. Depending on the amount of free DOTA thus liberated, the free DOTA can be reacted with a positively charged resin, as is known in the art. Alternatively, the free DOTA may serve as a buffer against free Gd3+ formation, as is permitted in some drug formulations. Ten samples were prepared by adding stoichiometric amounts of DTPA to counter the excess Gd3+ and stored at room temperature for 24 hours. Samples were tested using the improved spectrometric xylenol orange method.

Molecule: O=C([O-])CN1CCN(CC(=O)[O-])CCN(CC(=O)O)CCN(CC(=O)[O-])CC1.[Gd+3] [Batch A, Gd-DOTA]
- Free Gd ([1]; synthesis time 4 hrs): 15,036 +/− 12.8 ppm
- Free Gd ([1]; synthesis time 8 hrs): 4,947 +/− 9.9 ppm
- Free Gd ([1]; synthesis time 12 hrs): 1,792 +/− 10.5 ppm

Molecule: O=C([O-])CN1CCN(CC(=O)[O-])CCN(CC(=O)O)CCN(CC(=O)[O-])CC1.[Gd+3] [Batch B, Gd-DOTA]
- Free Gd ([1]; synthesis time 4 hrs): 19,276 +/− 6.3 ppm
- Free Gd ([1]; synthesis time 8 hrs): 2,793 +/− 7.1 ppm
- Free Gd ([1]; synthesis time 12 hrs): 377 +/− 5.2 ppm

Molecule: O=C([O-])CN1CCN(CC(=O)[O-])CCN(CC(=O)O)CCN(CC(=O)[O-])CC1.[Gd+3] [Example 1A, Gd-DOTA]
- Free Gd, titrated with meglumine to pH 7.0 [2]: 0.77+/−0.92 ppm
- Free Gd ([2]; synthesis time 4 hrs): 17,467 +/− 9.4 ppm
- Free Gd ([2]; synthesis time 8 hrs): 3,448 +/− 8.9 ppm
- Free Gd ([2]; synthesis time 12 hrs): 803 ppm and 803 +/− 8.1 ppm
- Free Gd ([2]; synthesis time 16 hrs): 509 +/− 4.2 ppm
- Free Gd ([2]; synthesis time 20 hrs): 63.6 +/− 9.7 ppm
- Free Gd ([2]; synthesis time 24 hrs): 31.0 +/− 2.1 ppm
- Free Gd ([2]; synthesis time 28 hrs): 1.2 +/− 0.72 ppm
- Free Gd ([2]; synthesis time 32 hrs): 0.25 +/− 0.67 ppm
- Free Gd ([3]; synthesis time 4 hrs): 71,830 ppm
- Free Gd ([3]; synthesis time 8 hrs): 7,044 ppm
- Free Gd ([3]; synthesis time 12 hrs): 2,146 ppm
- Free Gd ([3]; synthesis time 16 hrs): 957 ppm
- Free Gd ([3]; synthesis time 20 hrs): 401 ppm
- Free Gd ([3]; synthesis time 24 hrs): 147 ppm
- Free Gd ([3]; synthesis time 28 hrs): 92 ppm
- Free Gd ([3]; synthesis time 32 hrs): 56 (compare to 0.77 without solvents) ppm

Molecule: O=C([O-])CN1CCN(CC(=O)[O-])CCN(CC(=O)O)CCN(CC(=O)[O-])CC1.[Gd+3] [Example 1B, Gd-DOTA]
- Free Gd, titrated with meglumine to pH 7.0 [2]: 0.77+/−0.92 ppm
- Free Gd ([2]; synthesis time 4 hrs): 17,467 +/− 9.4 ppm
- Free Gd ([2]; synthesis time 8 hrs): 3,448 +/− 8.9 ppm
- Free Gd ([2]; synthesis time 12 hrs): 803 ppm and 803 +/− 8.1 ppm
- Free Gd ([2]; synthesis time 16 hrs): 509 +/− 4.2 ppm
- Free Gd ([2]; synthesis time 20 hrs): 63.6 +/− 9.7 ppm
- Free Gd ([2]; synthesis time 24 hrs): 31.0 +/− 2.1 ppm
- Free Gd ([2]; synthesis time 28 hrs): 1.2 +/− 0.72 ppm
- Free Gd ([2]; synthesis time 32 hrs): 0.25 +/− 0.67 ppm
- Free Gd ([3]; synthesis time 4 hrs): 71,830 ppm
- Free Gd ([3]; synthesis time 8 hrs): 7,044 ppm
- Free Gd ([3]; synthesis time 12 hrs): 2,146 ppm
- Free Gd ([3]; synthesis time 16 hrs): 957 ppm
- Free Gd ([3]; synthesis time 20 hrs): 401 ppm
- Free Gd ([3]; synthesis time 24 hrs): 147 ppm
- Free Gd ([3]; synthesis time 28 hrs): 92 ppm
- Free Gd ([3]; synthesis time 32 hrs): 56 (compare to 0.77 without solvents) ppm

Molecule: O=C([O-])CN1CCN(CC(=O)[O-])CCN(CC(=O)O)CCN(CC(=O)[O-])CC1.[Gd+3] [Example 5, Gd-DOTA]
- Metastable Intermediates ([4]; 3 hours of reaction): 28,094 +/− 9.7 ppm
- Metastable Intermediates ([4]; 8 hours of reaction): 3,853 +/− 12.4 ppm
- Metastable Intermediates ([4]; 24 hours of reaction): 72 +/− 5.0 ppm
- Metastable Intermediates ([4]; 32 hours of reaction): 0.8 +/− 1.3 ppm
- Metastable Intermediates after titration with meglumine to pH 7.0 ([4]; after 32 hours of reaction, unit not given): 1.2 +/− 3.8

Molecule: Gd-DOTA [Example 6]
- Free Gd3+ after samples treated ([5]; 24 hrs): 685 +/− 9.4
- Free Gd3+ after samples treated ([5]; 48 hrs): 292 +/− 15.2
- Free Gd3+ after samples treated ([5]; 96 hrs): 8.9 +/− 8.5

- Gd3+ after samples treated with DTPA, range (upper value, down to undetectable) [6]: ≤ 27.6 ppm
- Gd3+ after samples treated with DTPA ([6]; N=5): 14.8+/−11.6 ppm
Molecule: Gd-DOTA [Example 7]
